Entries after “also recorded” stand apart in the source; their conditions may differ. Where two headings read alike, the source gives them in different places.
Legend:
C57BL/6NTac mice [1] = assay: EPM in CORT model; type: in vivo; details: ketamine or fluoxetine before CORT
Protocol: (§1) Experiment 5 (Pre-ketamine and pre-fluoxetine corticosterone (CORT)): C57BL16NTac mice were injected with ketamine (10, 30, 90 mg kg^−1, i.p.) 1 week before the start of CORT, or administered fluoxetine (18 mg kg^−1 per day) in the drinking water for 3 weeks before the start of CORT. Ketamine was purchased from Merial (100 mg/ml stock solution). Fluoxetine hydrochloride (160 μg/mL, equivalent to 18 mg kg^−1 per day in the drinking water) was purchased from Anawa Trading (Zurich, Switzerland) and dissolved in 0.45% hydroxypropyl-β-cyclodextrin (β-CD) (Sigma-Aldrich, Saint-Quentin Fallavier, France) solution. Following ketamine or fluoxetine treatment, CORT was administered for 3 weeks in the drinking water. CORT (4-pregnen-11b-DIOL-3 20-DIONE 21-hemisuccinate) (35 μg/ml) from. Sigma Aldrich (Saint-Quentin Fallavier, France) was dissolved in vehicle (0.45% β-CD). Control animals received vehicle (0.45% β-CD) throughout the duration of the experiment.
Testing was performed as previously described (A14). […] For the 12956/SvEv experiments, videos were scored using behavioral tracking software (TopScan, CleverSys, Reston, Va.). For the C57BL/6Ntac experiments, all parameters were measured using a videotracker (EPM3C. Bioseb, Vitrolles, France).

129S6/SvEvTac mice [2] = assay: Open field (OF) after reinstatement; type: in vivo
Protocol: OF protocol was administered as previously described (Richardson-Jones et al., 2010).

C57BL/6NTac mice [3] = assay: Sucrose splash test (ST) in CORT model; type: in vivo; details: ketamine 90 mg kg^−1 or fluoxetine, before CORT
Protocol: as §1
This test consisted of squirting 200 μl of a 10% sucrose solution on the mouse's snout. The grooming duration was quantified using Stopwatch+ (Center for Behavioral Neuroscience, Georgia State University).

C57BL/6J strain = details: cited from earlier work
129S6/SvEv mice = assay: FST after prophylactic ketamine or ketamine metabolites (FIG. 15); type: in vivo; details: prophylactic K-injected vs Sal-injected mice
[4] = system: adult hippocampal neurogenesis; assay: Doublecortin and Ki67 immunohistochemistry, dentate gyrus; type: in vivo, mice; details: for number of Ki67+ cells: ketamine vs saline (FIG. 6K)
Protocol: Mice were deeply anesthetized with ketamine (100 mg kg) and transcardially perfused with IX phosphate buffer saline (PBS), followed by chilled 4% paraformaldehyde (PFA)/IX PBS (A15), Brains were post-fixed overnight in 4% PFA at 4° C., then cryoprotected in 30% sucrose/1× PBS, and stored at 4° C. Serial coronal sections (35 μm) were cut through the entire hippocampus on a cryostat and stored in IX PBS with 0.1% NaN3. Doublecortin (DCX) immunohistochemistry was performed as previously described (A15). For DCX immunohistochemistry, sections were washed in 1× PBS containing 0.5% Triton and then quenched in 0.3% H2O2 in IX PBS/CH3OH (1:1) for 15 min at room temperature. Sections were blocked in 10% normal donkey serum in 1× PBS with 0.5% Triton X-100 for 2 h at room temperature. Incubation with primary antibody was performed at 4° C. overnight (goat anti-DCX, 1:500, Santa Cruz Biotechnology, Santa Cruz, Calif., #SC 8,066) in 1× PBS with 0.5% Triton X-100. Sections were then incubated with a biotinylated secondary antibody (donkey anti-goat; 1:250, Jackson lmmunoResearch, West Grove, Pa.) for 2 h at room temperature. Sections were treated with avidin-biotin-peroxidase complex (ABC Elite Kit, Vector Labs, Burlingame, Calif.) followed by 3,3′ diaminobenzidine as a substrate for staining (Vector, Burlingame, Calif.).
Ki67 immunohistochemistry was performed as previously described (A16). For Ki67 immunohistochemistry, sections were washed in 1× PBS containing 0.5% Triton, and then blocked in 10% normal donkey serum in 1× PBS with 0.5% Triton X-100 for 2 h at room temperature. Incubation with primary antibody was performed at 4° C. overnight (rabbit anti-Ki67, 1:100, Vector Laboratories. Burlingame, Calif., #VP-RM04) in 1× PBS with 0.5% Triton X-100. Sections were then incubated with a biotinylated secondary antibody (donkey anti-rabbit; 1:250, Jackson ImmunoResearch, West Grove, Pa.) for 2 h at room temperature. Sections were treated with avidin-biotin-peroxidase complex (ABC Elite Kit, Vector Labs, Burlingame, Calif.) followed by 3,3′ diaminobenzidine as a substrate for staining (Vector, Burlingame, Calif.).
An investigator blind to treatment used a Zeiss Axioplan-2 upright microscope (Oberkochen, Germany) to count cells bilaterally in the granule cell layer of the dentate gyms throughout the entire rostra-caudal axis of the hippocampus (HPC). Every sixth section throughout the entire extent of the HPC was included in the analysis. Cells were counted bilaterally using a 20× objective. The average cells per section are presented throughout the text.

129S6/SvEvTac mice [5] = assay: Dominant interaction test after SD; type: in vivo
Protocol: Adult aggressor CD-1 male mice were single-housed in Macrolon® polycarbonate resin cages (15.25 in×7.8 in×9.5 in) (Animal Care Systems, Inc., Centennial, Colo.). Male 129S6/SvEvTac mice (9 weeks of age) were subsequently placed into the resident. CD-1 mouse's cage. Three antagonistic encounters were allowed between the CD-1 mouse and the intruder. Each of these encounters typically lasted less than 5 min. Following the encounters, mice were separated by a polished stainless steel cage divider (Animal Care Systems, Inc., Centennial, Colo., P/N C79171), which allowed for olfactory and auditory communication, but limited visual or tactile contact. The partition was removed daily for 2 weeks and 3 antagonistic encounters were allowed between the mice each day. This procedure consistently yielded a submissive phenotype in the experimental intruder mice. Control (Ctrl) mice were group housed 4 to 5 per cage in Macrolon® polycarbonate resin cages without dividers.
Dominant interaction was performed as previously described (A12). Briefly, mice were placed into a large open field containing 2 upside-down wire mesh pencil cups. One pencil cup served as a novel object or empty container. The other pencil cup contained the CD-1 aggressor mouse. Mice were placed in the middle of the open field arena and allowed to explore for 10 min. Sessions were videotaped and the first 5 min were later analyzed using behavioral tracking software (TopScan, CleverSys, Reston, Va.).

[6] = 20 mg kg^−1 following the final SD session
[7] = SD mice, ketamine 30 mg kg^−1 before SD, vs SD-Sal

Structure (SMILES): CNC1(c2ccccc2Cl)CCCCC1=O (racemic) [ketamine, (RS)-2-(2-chlorophenyl)-2-(methylamino)cyclohexanone]
- time in the closed arms of EPM (anxiety-like phenotype) (C57BL/6NTac mice [1]): Neither ketamine nor fluoxetine robustly protected
- number of rearing bouts in the OF (129S6/SvEvTac mice [2]; ketamine 1 week prior to 1-shock reinstatement, vs saline): higher number of rearing bouts; also recorded: increased number of rearing bouts
- number of rearing bouts in the OF (129S6/SvEvTac mice [2]; ketamine 1 week prior to 3-shock reinstatement): comparable number of rearing bouts
- latency to groom in the ST (chronic CORT-induced depressive-like phenotype) (C57BL/6NTac mice [3]): prevented the chronic CORT-induced depressive-like phenotype; also recorded: decreased the latency to groom
- social avoidance (C57BL/6J strain; 20 mg kg^−1 administered before SD): did not attenuate social avoidance
- anhedonia (C57BL/6J strain; [6]): not anhedonia
- social avoidance (C57BL/6J strain; [6]): attenuated social avoidance
- immobility in day 2 of the FST (129S6/SvEv mice): significantly less immobility
- number of Ki67+ cells ([4]; Ctrl mice): increases
- number of Ki67+ cells ([4]; SD mice): not in SD mice
- number of Ki67 cells in the dentate gyrus ([4]; ketamine administered after SD): significantly increases the number of Ki671 cells
- DCX levels ([4]; ketamine in post-SD design (FIG. 6L)): does not alter DCX levels
- adult hippocampal neurogenesis (levels of doublecortin and Ki67) ([4]; prophylactic ketamine before SD): did not observe an effect
- time investigating the empty enclosure quadrant (129S6/SvEvTac mice [5]; Ctrl mice, ketamine 30 mg kg^−1 vs saline): equivalent amount of time investigating the empty enclosure quadrant
- interaction with the CD-1 aggressor mouse (129S6/SvEvTac mice [5]; [7]): significantly increased willingness to interact with the CD-1; also recorded: considerably more time investigating a CD-1 mouse
- time investigating the empty enclosure quadrant (129S6/SvEvTac mice [5]; [7]): significantly less time investigating the empty enclosure quadrant

— patent US11110070B2 (priority 2015, dated 2021)
